Experimental data from US4839350A, “Cephalosporin compounds and the production thereof” (Meiji Seika Kaisha, Ltd., priority 1984, dated 1989).
Counter-ions that a name gives are not always drawn. Like-named read-outs stand apart in the source and are kept apart here.

What was measured:
Type in all cases: cell-based
[1] = tested on: Staphylococcus aureus 209P JC-1; test: MIC by agar-dilution method, Staphylococcus aureus 209P JC-1
Text: (§1) The compounds of this invention are all novel compounds.

[2] = tested on: Klebsiella pneumoniae PCI 602; test: MIC by agar-dilution method, Klebsiella pneumoniae PCI 602
Text: as §1

Proteus mirabilis GN 79 = test: MIC by agar-dilution method, Proteus mirabilis GN 79
Text: as §1

[3] = tested on: Pseudomonas aeruginosa MB 3833; test: MIC by agar-dilution method, Pseudomonas aeruginosa MB 3833
Text: as §1

Proteus vulgaris GN 76 = test: MIC by agar-dilution method, Proteus vulgaris GN 76
Text: as §1

[4] = tested on: Staphylococcus aureus Smith; test: MIC by agar-dilution method, Staphylococcus aureus Smith
Text: as §1

[5] = tested on: Salmonella typhimurium LT-2; test: MIC by agar-dilution method, Salmonella typhimurium LT-2
Text: as §1

[6] = tested on: Serratia marcescens No. 1; test: MIC by agar-dilution method, Serratia marcescens No. 1
Text: as §1

[7] = tested on: Escherichia coli NIHJ JC-2; test: MIC by agar-dilution method, Escherichia coli NIHJ JC-2
Text: as §1

Proteus rettgeri GN 624 = test: MIC by agar-dilution method, Proteus rettgeri GN 624
Text: as §1

[8] = Salmonella enterica, read-out: MIC.
[9] = Providencia rettgeri, GN624, read-out: MIC.

MIC ([1]; read-out: MIC.) [µg/mL]	MIC ([2]; PCI602, read-out: MIC.) [µg/mL]	MIC (Proteus mirabilis GN 79; GN79, read-out: MIC.) [µg/mL]	MIC ([3]; MB3833, read-out: MIC.) [µg/mL]	MIC (Proteus vulgaris GN 76; GN76, read-out: MIC.) [µg/mL]	MIC ([4]; read-out: MIC.) [µg/mL]	MIC [5, 8] [µg/mL]	MIC ([6]; read-out: MIC.) [µg/mL]	MIC ([7]; NIHJJC2, read-out: MIC.) [µg/mL]	MIC (Proteus rettgeri GN 624; [9]) [µg/mL]	MIC [1] [µg/mL]	MIC [2] [µg/mL]	MIC (Proteus mirabilis GN 79) [µg/mL]	MIC [3] [µg/mL]	MIC (Proteus vulgaris GN 76) [µg/mL]	MIC [4] [µg/mL]	MIC [5] [µg/mL]	MIC [6] [µg/mL]	MIC [7] [µg/mL]	MIC (Proteus rettgeri GN 624) [µg/mL]	Compound
										3.13	0.20	0.05	12.5	≤ 0.025	3.13	0.10	0.05	0.39	1.56	Cc1ncsc1C=CC1=C(C(=O)O)N2C(=O)C(NC(=O)C(=NOCC(=O)O)c3csc(N)n3)C2SC1.O=C(O)C(F)(F)F (single isomer, unassigned) [Example 16, 7-[2-carboxymethoxyimino-2-(2-aminothiazol-4-yl)acetamido]-3-[2-(4-methylthiazol-5yl)vinyl]-3-cephem-4-carboxylic acid trifluoroacetate (syn-isomer, trans-isomer)]
0.2	0.39	0.39	25	0.2	0.39	0.39	0.39	0.39	3.13											CO/N=C(\C(=O)NC1C(=O)N2C(C(=O)O)=C(/C=C\c3scnc3C)CSC12)c1csc(N)n1 (stereo not drawn) [Example 10, 7-[2-methoxyimino-2-(2-aminothiazol-4-yl)acetamido]-3-[2-(4-methylthiazol-5-yl)vinyl]-3-cephem-4-carboxylic acid trifluoroacetate (cyn-isomer, cis-isomer)]
0.78	0.1	0.78	> 50	0.39	0.78	0.1	0.1	0.1	0.39											CO/N=C(\C(=O)NC1C(=O)N2C(C(=O)O)=C(C=Cc3sc[n+](C)c3C)CSC12)c1csc(N)n1 (stereo not drawn) [Example 15, 7-[2-methoxyimino-2-(2-aminothiazol-4-yl)acetamido]-3-[2-(3,4-dimethyl-5-thiazolio)vinyl]-3-cephem-4-carboxylic acid di-trifluoroacetate (syn-isomer)]
0.39	0.39		50	0.1	0.39	0.78	0.39	0.78	0.39											CO/N=C(\C(=O)NC1C(=O)N2C(C(=O)O)=C(/C=C/c3scnc3C)CSC12)c1csc(N)n1 (stereo not drawn) [Example 18, 7-[2-methoxyimino-2-(2-aminothiazol-4-yl)acetamido-3-[2-(4-methylthiazol-5-yl)vinyl]-3cephem-4-carboxylic acid sodium salt (syn-isomer, trans-isomer)]
0.1	0.1	0.2	12.5	0.1	0.2	0.2	0.2	0.2	1.56											CO/N=C(\C(=O)NC1C(=O)N2C(C(=O)O)=C(/C=C\c3scnc3Cl)CSC12)c1csc(N)n1 (stereo not drawn) [Example 21, 7-[2-methoxyimino-2-(2-aminothiazol-4-yl)acetamido]-3-[2-(4-chlorothiazol-5-yl)vinyl]-3-cephem-4-carboxylic acid (syn-isomer, cis-isomer) sodium salt]

Second part, the molecule before the results:

Compound	MIC ([1]; read-out: MIC.) [µg/mL]	MIC ([2]; PCI602, read-out: MIC.) [µg/mL]	MIC (Proteus mirabilis GN 79; GN79, read-out: MIC.) [µg/mL]	MIC ([3]; MB3833, read-out: MIC.) [µg/mL]	MIC (Proteus vulgaris GN 76; GN76, read-out: MIC.) [µg/mL]	MIC ([4]; read-out: MIC.) [µg/mL]	MIC [5, 8] [µg/mL]	MIC ([6]; read-out: MIC.) [µg/mL]	MIC ([7]; NIHJJC2, read-out: MIC.) [µg/mL]	MIC (Proteus rettgeri GN 624; [9]) [µg/mL]	MIC [1] [µg/mL]	MIC [2] [µg/mL]	MIC (Proteus mirabilis GN 79) [µg/mL]	MIC [3] [µg/mL]	MIC (Proteus vulgaris GN 76) [µg/mL]	MIC [4] [µg/mL]	MIC [5] [µg/mL]	MIC [6] [µg/mL]	MIC [7] [µg/mL]	MIC (Proteus rettgeri GN 624) [µg/mL]
CO/N=C(\C(=O)NC1C(=O)N2C(C(=O)O)=C(C=Cc3ccccc3F)CSC12)c1csc(N)n1 (mixture of isomers) [Example 14, 7-[2-methoxyimino-2-(2-aminothiazol-4-yl)acetamido]-3-[2-(o-fluorophenyl)vinyl]-3-cephem-4-carboxylic acid trifluoroacetate (syn-isomer, mixed cis- and trans-isomers)]	0.2	3.13	0.2	> 50	0.2	0.39	3.13	1.56	3.13	1.56										
CO/N=C(\C(=O)NC1C(=O)N2C(C(=O)O)=C(/C=C\c3ccccc3)CSC12)c1csc(N)n1 (stereo not drawn) [Example 11, 7-[2-methoxyimino-2-(2-aminothiazol-4-yl)acetamido]-3-(2-phenylvinyl)-3-cephem-4-carboxylic acid trifluoroacetate (cyn-isomer, cis-isomer)]	0.78	3.13	0.78	> 50	0.78	0.78	6.25	1.56	3.13	3.13										
CO/N=C(\C(=O)NC1C(=O)N2C(C(=O)O)=C(/C=C\c3ccco3)CSC12)c1csc(N)n1 (stereo not drawn) [Example 12, 7-[2-methoxyimino-2-(2-aminothiazol-4-yl)acetamido]-3-[2-(2-furyl)vinyl]-3-cephem-4-carboxylic acid sodium salt (cyn-isomer, cis-isomer)]	0.39	1.56	0.78	> 50	0.39	0.78	1.56	1.56	3.13	3.13										
CO/N=C(\C(=O)NC1C(=O)N2C(C(=O)O)=C(/C=C/c3ccc([N+](=O)[O-])o3)CSC12)c1csc(N)n1 (stereo not drawn) [Example 13, 7-[2-methoxyimino-2-(2-aminothiazol-4-yl)acetamido]-3-[2-(5-nitor-2-furyl)vinyl]-3-cephem-4-carboxylic acid sodium salt (syn-isomer, trans-isomer)]	6.25	3.13	12.5	> 50	3.13	6.25	6.25	6.25	6.25	3.13										
CO/N=C(\C(=O)NC1C(=O)N2C(C(=O)O)=C(/C=C/c3cnc(C)s3)CSC12)c1csc(N)n1 (stereo not drawn) [Example 30, 7-[2-methoxyimino-2-(2-aminothiazol-4-yl)acetamido]-3-[2-(2-methylthiazol-5-yl)vinyl]-3-cephem-4-carboxylic acid trifluoroacetate (syn-isomer, trans-isomer)]	0.78	0.78	0.2	> 50	0.1	1.56	0.39	0.2	0.78	0.2										
CO/N=C(\C(=O)NC1C(=O)N2C(C(=O)O)=C(/C=C\c3cnc(C)s3)CSC12)c1csc(N)n1 (stereo not drawn) [Example 31, 7-[2-methoxyimino-2-(2-aminothiazol-4-yl)acetamido]-3-[2-(2-methylthiazol-5-yl)vinyl]-3-cephem-4-carboxylic acid trifluoroacetate (syn-isomer, cis-isomer)]	0.78	1.56	0.78	> 50	0.2	1.56	1.56	0.78	1.56	0.78										
CO/N=C(\C(=O)NC1C(=O)N2C(C(=O)O)=C(/C=C\c3cscn3)CSC12)c1csc(N)n1 (stereo not drawn) [Example 32, 7-[2-methoxyimino-2-(2-aminothiazol-4-yl)acetamido]-3-[2-(thiazol-4-yl)vinyl]-3-cephem-4-carboxylic acid sodium salt (syn-isomer, cis-isomer)]	0.39	1.56		100	0.1	0.78	0.78	0.78	1.56	6.25										
